Our source for the melting point values is patent US9539298B2, “Lissencephaly therapeutic agent” (OSAKA CITY UNIVERSITY, priority 2010, dated 2017).

One may read the melting point as the temperature, or range, at which the solid turns liquid. Take `CCNC(=O)C(=O)[C@H](Cc1ccccc1)NC(=O)[C@H](CC(C)C)NC(=O)OCCOC` [compound 1, ((1S)-1-((((1S)-1-Benzyl-2,3-dioxo-3-(ethylamino)propyl)amino)carbonyl)-3-methylbutyl) carbamic acid 2-methoxyethyl ester]: the melting point was in the range of 138 to 138.3 °C.

Compound `CCNC(=O)C(=O)[C@H](Cc1ccccc1)NC(=O)[C@H](CC(C)C)NC(=O)O[C@H]1CCOC1` [compound 2, ((1S)-1-((((1S)-1-Benzyl-2,3-dioxo-3-(ethylamino)propyl)amino)carbonyl)-3-methylbutyl)carbamic acid (3S)-tetrahydrofuran-3-yl ester] showed a melting point of 158.9 to 160.7 °C.

The compound `CCNC(=O)C(=O)[C@H](Cc1ccccc1)NC(=O)[C@H](CC(C)C)NC(=O)OC1CCOCC1` [compound 3, ((1S)-1-((((1S)-1-Benzyl-2,3-dioxo-3-(ethylamino)propyl)amino)carbonyl)-3-methylbutyl)carbamic acid tetrahydro-4H-pyran-4-yl ester] returned a melting point of 140 to 141.8 °C.

Regarding `CC(C)C[C@H](NC(=O)O[C@H]1CCOC1)C(=O)N[C@@H](Cc1ccccc1)C(=O)C(=O)NC1CC1` [compound 5, ((1S)-1-((((1S)-1-Benzyl-3-(cyclopropylamino)-2,3-dioxopropyl)amino)carbonyl)-3-methylbutyl)carbamic acid (3S)-tetrahydrofuran-3-yl ester], the melting point lay in the range of 169.2 to 170.5 °C.

Consider `CC(C)C[C@H](NC(=O)OC1CCOCC1)C(=O)N[C@@H](Cc1ccccc1)C(=O)C(=O)NC1CC1` [compound 6, ((1S)-1-((((1S)-1-Benzyl-3-cyclopropylamino-2,3-dioxopropyl)amino)carbonyl)-3-methylbutyl)carbamic acid tetrahydro-4H-pyran-4-yl ester], for which the melting point lay in the range of 137 to 138.2 °C.

Regarding `CCCNC(=O)C(=O)[C@H](Cc1ccccc1)NC(=O)[C@H](CC(C)C)NC(=O)OCCOC` [compound 7, ((1S)-1-((((1S)-1-Benzyl-2,3-dioxo-3-(propylamino)propyl)amino)carbonyl)-3-methylbutyl)carbamic acid 2-methoxyethyl ester], the melting point fell in the range of 108.8 to 109.9 °C.

Regarding `COCCOC(=O)N[C@@H](CC(C)C)C(=O)N[C@@H](Cc1ccccc1)C(=O)C(=O)NC1CCC1` [compound 8, ((1S)-1-((((1S)-1-Benzyl-2,3-dioxo-3-(cyclobutylamino)propyl)amino)carbonyl)-3-methylbutyl)carbamic acid 2-methoxyethyl ester], the melting point lay in the range of 114.2 to 115.3 °C.

`CCCCNC(=O)C(=O)[C@H](Cc1ccccc1)NC(=O)[C@H](CC(C)C)NC(=O)OCCOC` [compound 9, ((1S)-1-((((1S)-1-Benzyl-3-butylamino-2,3-dioxopropyl)amino)carbonyl)-3-methylbutyl)carbamic acid 2-methoxyethyl ester] gave a melting point of 94 to 95.2 °C.

`COCCOC(=O)N[C@@H](CC(C)C)C(=O)N[C@@H](Cc1ccccc1)C(=O)C(=O)NCC(F)(F)F` [compound 10, ((1S)-1-((((1S)-1-Benzyl-2,3-dioxo-3-(2,2,2-trifluoroethylamino)propyl)amino)carbonyl)-3-methylbutyl)carbamic acid 2-methoxyethyl ester] registered a melting point of 152.5 to 153.9 °C.

`COCCOC(=O)N[C@@H](CC(C)C)C(=O)N[C@@H](Cc1ccccc1)C(=O)C(=O)NC1Cc2ccccc2C1` [compound 11, ((1S)-1-((((1S)-1-Benzyl-2,3-dioxo-3-(2-indanylamino)propyl)amino)carbonyl)-3-methylbutyl)carbamic acid 2-methoxyethyl ester]: the melting point is 141.9 to 143.5 °C.

For the compound `COCCNC(=O)C(=O)[C@H](Cc1ccccc1)NC(=O)[C@H](CC(C)C)NC(=O)OCCOC` [compound 12, ((1S)-1-((((1S)-1-Benzyl-2,3-dioxo-3-(2-methoxyethylamino)propyl)amino)carbonyl)-3-methylbutyl)carbamic acid 2-methoxyethyl ester], the melting point fell in the range of 127 to 127.9 °C.

In turn, `CCNC(=O)C(=O)[C@H](CCc1ccccc1)NC(=O)[C@H](CC(C)C)NC(=O)OCCOC` [compound 13, ((1S)-1-((((1S)-2,3-Dioxo-3-ethylamino-1-(phenylethyl)propyl)amino)carbonyl)-3-methylbutyl)carbamic acid 2-methoxyethyl ester] yielded a melting point of 119.1 to 120.4 °C.

In the case of `CCNC(=O)C(=O)[C@H](CCc1ccccc1)NC(=O)[C@H](CC(C)C)NC(=O)O[C@H]1CCOC1` [compound 14, ((1S)-1-((((1S)-2,3-Dioxo-3-ethylamino-1-(phenylethyl)propyl)amino)carbonyl)-3-methylbutyl)carbamic acid (3S)-tetrahydrofuran-3-yl ester], the melting point was 111.9 to 114.5 °C.

As for `COCCOC(=O)N[C@@H](CC(C)C)C(=O)N[C@@H](CCc1ccccc1)C(=O)C(=O)NC1CC1` [compound 15, ((1S)-1-((((1S)-2,3-Dioxo-3-cyclopropylamino-1-(phenylethyl)propyl)amino)carbonyl)-3-methylbutyl)carbamic acid 2-methoxyethyl ester], the melting point fell in the range of 109.7 to 111.1 °C.

Compound `CC(C)C[C@H](NC(=O)O[C@H]1CCOC1)C(=O)N[C@@H](CCc1ccccc1)C(=O)C(=O)NC1CC1` [compound 16] returned a melting point of 115.8 to 116.2 °C.

`COCCOC(=O)N[C@@H](CC(C)C)C(=O)N[C@@H](CC(C)C)C(=O)C(=O)NCCOc1ccccc1` [compound 21, ((1S)-1-((((1S)-2,3-Dioxo-1-(2-methylpropyl)-3-(2-phenoxyethyl)aminopropyl)amino)carbonyl)-3-methylbutyl)carbamic acid 2-methoxyethyl ester] showed a melting point of 99.7 to 100.5 °C.

For the compound `COCCOCCOC(=O)N[C@@H](CC(C)C)C(=O)N[C@@H](CC(C)C)C(=O)C(=O)NCCOc1ccccc1` [compound 22, ((1S)-1-((((1S)-2,3-Dioxo-1-(2-methylpropyl)-3-(2-phenoxyethyl)aminopropyl)amino)carbonyl)-3-methylbutyl) carbamic acid 5-methoxy-3-oxapentyl ester], the melting point is 53.3 to 54.1 °C.
